Biological target: T1, GPR88 (Homo sapiens, UniProt Q9GZN0)
T1 construct: expressed in transfected cells
Assay: Lance Ultra TR-FRET cAMP assay using stable PPLS-HA-GPR88 CHO cells
Format: cell-based
Conditions: for Emax: CHO; for EC50 / cAMP pEC50: stable PPLS-HA-GPR88 CHO cells; for EC50: value in parentheses beside pEC50; for cAMP pEC50: 300 nM forskolin, mean ± standard error of at least three independent experiments in duplicate
Description: The compounds of the present disclosure offer potent agonism to the orphan receptor GPR88. As such, the compounds of the present disclosure provide therapeutic potential for the treatment of striatal associated disorders such as Parkinson's disease, schizophrenia, and alcohol addiction. All compounds were evaluated for the GPR88 agonist activity in the inventors' previously established in vitro GPR88 Lance TR-FRET cAMP assay. See, supra, Jin et al., 2018, Rahman et al., 2020, and Rahman et al., 2021. As will be described, the TR-FRET signal was converted to fmol cAMP by interpolating from the standard cAMP curve. Fmol cAMP was plotted against the log of compound concentration and data were fit to a three-parameter logistic curve to generate maximum response (Emax) and EC50 values.
Lance™ Ultra cAMP assay using stable PPLS-HA-GPR88 CHO cells. All cAMP assays were performed using the inventors' previously published methods. […] ACS Chemical Neuroscience 2016, 7, 1418-1432, which is incorporated by reference herein with regard to such teaching. Stimulation buffer containing 1× Hank's Balanced Salt Solution (HBSS), 5 mM HEPES, 0.1% BSA stabilizer, and 0.5 mM final IBMX was prepared and titrated to pH 7.4 at room temperature. Serial dilutions of the test compounds (5 μL) and 300 nM forskolin (5 μL), both prepared at 4× the desired final concentration in 2% DMSO/stimulation buffer, were added to a 96-well white ½ area microplate (PerkinElmer). A cAMP standard curve was prepared at 4× the desired final concentration in stimulation buffer and 5 μL was added to the assay plate. Stable PPLS-HA-GPR88 CHO cells were lifted with versene and spun at 270 g for 10 minutes. The cell pellet was resuspended in stimulation buffer and 4,000 cells (10 μL) were added to each well except wells containing the cAMP standard curve. After incubating for 30 min at room temperature, Eu-cAMP tracer and uLIGHT-anti-cAMPworking solutions were added per the manufacturer's instructions. After incubation at room temperature for 1 hour, the TR-FRET signal (ex 337 nm) was read on a CLARIOstar multimode plate reader (BMG Biotech, Cary, NC).
Data Analysis. The TR-FRET signal (665 nm) was converted to fmol cAMP by interpolating from the standard cAMP curve. Fmol cAMP was plotted against the log of compound concentration and data were fit to a three-parameter logistic curve to generate EC50 values (Prism, version 6.0, GraphPad Software, Inc., San Diego, CA).

T1 sequence (Q9GZN0 whole entry): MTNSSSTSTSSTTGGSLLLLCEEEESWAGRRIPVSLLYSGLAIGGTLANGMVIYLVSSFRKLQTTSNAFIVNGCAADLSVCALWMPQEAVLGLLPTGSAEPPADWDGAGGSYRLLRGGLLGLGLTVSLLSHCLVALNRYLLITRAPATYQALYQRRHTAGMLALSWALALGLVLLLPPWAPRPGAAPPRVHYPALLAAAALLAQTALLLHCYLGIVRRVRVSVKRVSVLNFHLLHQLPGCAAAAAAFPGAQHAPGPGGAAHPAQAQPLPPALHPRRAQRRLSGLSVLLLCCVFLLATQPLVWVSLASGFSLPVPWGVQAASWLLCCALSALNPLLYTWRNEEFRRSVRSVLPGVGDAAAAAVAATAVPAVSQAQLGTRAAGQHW

SMILES	Emax [%]	EC50 [nM]	cAMP pEC50
CCCC(C)COc1ccc([C@@H](CO)C(=O)N[C@H](C)c2ccc(OC)cc2)cc1 (stereo partly drawn) [Compound 13, (2S)-3-Hydroxy-N-[(1 R)-1-(4-methoxyphenyl)ethyl]-2-{4-[(2-methylpentyl)oxy]phenyl}propenamide]	94 ± 3	–	–
CCCC(C)COc1ccc([C@@H](CO)C(=O)N[C@H](C)c2cccc(C)c2)cc1 (stereo partly drawn) [Compound 10, (2S)-3-Hydroxy-2-{4-[(2-methylpentyl)oxy]phenyl}-N-[(1 R)-1-(3-methylphenyl)ethyl]propenamide]	100 ± 3	–	–
CCCc1ccc(-c2ccc(N(C[C@@H](N)[C@@H](C)CC)C(=O)N(C)c3ccccc3)cc2)cc1 [Compound 39, 3-[(2S,3S)-2-Amino-3-methylpentyl]-1-methyl-1-phenyl-3-{4′-propyl-[1,1′-biphenyl]-4-yi}urea]	97 ± 12	2820	–
CCCc1ccc(-c2ccc(N(C[C@@H](N)[C@@H](C)CC)C(=O)N[C@@H](C)c3ccccc3)cc2)cc1 [Compound 42, 3-[(2S,3S)-2-Amino-3-methylpentyl]-1-[(1 S)-1-phenylethyl]-3-{4′-propyl-[1,1′-biphenyl]-4-yl}urea]	106 ± 10	1020	–
CCCc1ccc(-c2ccc(N(C[C@@H](N)[C@@H](C)CC)C(=O)Nc3ccccc3)cc2)cc1 [Compound 38, 3-[(2S,3S)-2-Amino-3-methylpentyl]-1-phenyl-3-{4′-propyl-[1,1′-biphenyl]-4-yl}urea]	–	–	Inactive
CCCc1ccc(-c2ccc(C(C(=O)N[C@H](C)c3ccccc3)C(=O)OC)cc2)cc1 (mixture of isomers) [Compound 28, Methyl 2-{[(1 R)-1-Phenylethyl]carbamoyl}-2-{4′-propyl-[1,1′-biphenyl]-4-yl}acetate]	99 ± 6	1290	–
CCCc1ccc(-c2ccc(N(C[C@@H](N)[C@@H](C)CC)C(=O)N[C@H](C)c3ccccc3)cc2)cc1 [Compound 41, 3-[(2S,3S)-2-Amino-3-methylpentyl]-1-[(1 R)-1-phenylethyl]-3-{4′-propyl-[1,1′-biphenyl]-4-yl}urea]	–	–	Inactive
CCCc1ccc(-c2ccc(C(C(=O)NC)C(=O)N[C@H](C)c3ccccc3)cc2)cc1 (mixture of isomers) [Compound 29, N-Methyl-N′-[(1 R)-1-phenylethyl]-2-{4′-propyl-[1,1′-biphenyl]-4-yl}propanediamide]	105 ± 2	1380	–
CCCC(C)COc1ccc([C@@H](CO)C(=O)NCCc2ccccc2)cc1 (stereo partly drawn) [Compound 16, (2S)-3-Hydroxy-2-{4-[(2-methylpentyl)oxy]phenyl}-N-(2-phenylethyl)propenamide]	97 ± 5	–	–
CCCC(C)COc1ccc([C@H](CO)C(=O)N[C@H](C)c2ccccc2)cc1 (stereo partly drawn) [Compound 3, (2R)-3-Hydroxy-2-{4-[(2-methylpentyl)oxy]phenyl}-N-[(1 R)-1-phenylethyl]propanamide]	77 ± 4	–	–
CCCC(C)COc1ccc([C@@H](CO)C(=O)N[C@@H]2C[C@H]2c2ccccc2)cc1 (stereo partly shown) [Compound 24]	83 ± 5	–	–
C[C@@H](NC(=O)[C@H](CO)c1ccc(-c2ccc(CC3CC3)cc2)cc1)c1ccccc1 [Compound 33, (2S)-2-[4′-(Cyclopropylmethyl)-[1,1′-biphenyl]-4-yl]-3-hydroxy-N-[(1 R)-1-phenylethyl]propenamide]	87 ± 5	263	–
CCCC#Cc1ccc([C@@H](CO)C(=O)N[C@H](C)c2ccccc2)cc1 [Compound 36, (2S)-3-Hydroxy-2-[4-(pent-1-yn-1-yl)phenyl]-N-[(1 R)-1-phenylethyl]propenamide]	92 ± 7	204	–
CCCC(C)COc1ccc([C@@H](CO)C(=O)N[C@H](CC)c2ccccc2)cc1 (stereo partly drawn) [Compound 17, (2S)-3-Hydroxy-2-{4-[(2-methylpentyl)oxy]phenyl}-N-[(1 R)-1-phenylpropyl]propenamide]	102 ± 8	–	–
CCCC(C)COc1ccc([C@@H](CO)C(=O)N[C@H](C)c2ccco2)cc1 (stereo partly drawn) [Compound 22, (2S)—N-[(1 R)-1-(Furan-2-yl)ethyl]-3-hydroxy-2-{4-[(2-methylpentyl)oxy]phenyl}propenamide]	108 ± 6	–	–
CCCC(C)COc1ccc([C@@H](CO)C(=O)N[C@H](C)c2ccccn2)cc1 (stereo partly drawn) [Compound 21, (2S)-3-Hydroxy-2-{4-[(2-methylpentyl)oxy]phenyl}-N-[(1 R)-1-(pyridin-2-yl)ethyl]propenamide]	93 ± 4	–	–
CCCC(C)COc1ccc([C@@H](CO)C(=O)N[C@H](C)c2ccc(C)cc2)cc1 (stereo partly drawn) [Compound 11, (2S)-3-Hydroxy-2-{4-[(2-methylpentyl)oxy]phenyl}-N-[(1 R)-1-(4-methylphenyl)ethyl]propenamide]	102 ± 7	–	–
CCCC(C)COc1ccc([C@@H](CO)C(=O)NC(C)(C)c2ccccc2)cc1 (stereo partly drawn) [Compound 19, (2S)-3-Hydroxy-2-{4-[(2-methylpentyl)oxy]phenyl}-N-(2-phenylpropan-2-yl)propenamide]	83 ± 2	1260	5.90 ± 0.05
CCCC(C)COc1ccc([C@@H](CO)C(=O)NC2(c3ccccc3)CC2)cc1 (stereo partly drawn) [Compound 20, (2S)-3-Hydroxy-2-{4-[(2-methylpentyl)oxy]phenyl}-N-(1-phenylcyclopropyl)propenamide]	81 ± 8	–	–

Results, then the compound that gave them:

Emax [%]	EC50 [nM]	cAMP pEC50	SMILES
91 ± 4	1860	–	CCCc1ccc(-c2ccc(N(C[C@@H](N)[C@@H](C)CC)C(=O)NC3(c4ccccc4)CC3)cc2)cc1 [Compound 46, 1-[(2S,3S)-2-Amino-3-methylpentyl]-3-(1-phenylcyclopropyl)-1-{4′-propyl-[1,1′-biphenyl]-4-yl}urea]
106 ± 3	324	–	CCCc1ccc(-c2ccc(N(C[C@@H](N)[C@@H](C)OC)C(=O)N[C@@H](C)c3ccccc3)cc2)cc1 [Compound 54, 3-[(2R,3R)-2-Amino-3-methoxybutyl]-1-[(1 S)-1-phenylethyl]-3-{4′-propyl-[1,1′-biphenyl]-4-yl}urea]
114 ± 6	457	–	CO[C@H](C)[C@H](N)CN(C(=O)N[C@@H](C)c1ccccc1)c1ccc(-c2ccc(C)cc2)cc1 [Compound 55, 3-[(2R,3R)-2-Amino-3-methoxybutyl]-1-[(1 S)-1-phenylethyl]-3-{4′-methyl-[1,1′-biphenyl]-4-yl}urea]
103 ± 4	2000	–	CCCc1ccc(-c2ccc(N(C[C@@H](N)[C@@H](C)CC)C(=O)N[C@@H](CC)c3ccccc3)cc2)cc1 [Compound 47, 3-[(2S,3S)-2-Amino-3-methylpentyl]-1-[(1 S)-1-phenylpropyl]-3-{4′-propyl-[1,1′-biphenyl]-4-yl}urea]
106 ± 3	1740	–	CCCc1ccc(-c2ccc(N(C[C@@H]3CCCN3)C(=O)N[C@@H](C)c3ccccc3)cc2)cc1 [Compound 53, 1-[(1 S)-1-Phenylethyl]-3-{4′-propyl-[1,1′-biphenyl]-4-yl}-3-{[(2S)-pyrrolidin-2-yl]methyl}urea]
129 ± 4	1410	–	CCCc1ccc(-c2ccc(N(C[C@H](N)CC(C)C)C(=O)N[C@@H](C)c3ccccc3)cc2)cc1 [Compound 51, 3-[(2R)-2-Amino-4-methylpentyl]-1-[(1 S)-1-phenylethyl]-3-{4′-propyl-[1,1′-biphenyl]-4-yl}urea]
108 ± 4	1380	–	CCCCCCc1ccc(N(C[C@@H](N)[C@@H](C)CC)C(=O)N[C@@H](C)c2ccccc2)cc1 [Compound 43, 3-[(2S,3S)-2-Amino-3-methylpentyl]-3-(4-hexylphenyl)-1-[(1 S)-1-phenylethyl]urea]
100 ± 4	407	–	CO[C@H](C)[C@H](N)CN(C(=O)N[C@@H](C)c1ccccc1)c1ccc(-c2ccc(OC(C)C)cc2)cc1 [Compound 59, 3-[(2R,3R)-2-Amino-3-methoxybutyl]-1-[(1 S)-1-phenylethyl]-3-[4′-(propan-2-yloxy)-[1,1′-biphenyl]-4-yl]urea]
–	–	Inactive	CCCc1ccc(-c2ccc(N(C[C@@H](N)[C@@H](C)CC)C(=O)N[C@@H]3C[C@H]3c3ccccc3)cc2)cc1 [Compound 44, 1-[(2S,3S)-2-Amino-3-methylpentyl]-3-[(1 R,2S)-2-phenylcyclopropyl]-1-(4′-propyl-[1,1′-biphenyl]-4-yl}urea]
102 ± 2	676	–	CCOc1ccc(-c2ccc(N(C[C@@H](N)[C@@H](C)OC)C(=O)N[C@@H](C)c3ccccc3)cc2)cc1 [Compound 58, 3-[(2R,3R)-2-Amino-3-methoxybutyl]-1-[(1 S)-1-phenylethyl]-3-{4′-ethoxy-[1,1′-biphenyl]-4-yl}urea]
